Source: patent publication US20250313533A1, “QUINOLINE CARBOXYLIC ACID ESTER COMPOUND AND PREPARATION METHOD AND USE THEREOF” (priority 2019, published 2025)

How the values were obtained:
[1] = system: pathogenic bacteria causing bacterial angular leaf spot in cucumbers; test: In vitro bactericidal activity, bacterial angular leaf spot in cucumbers; assay type: cell-based, pseudomonas; details: read-out: inhibitory rate; for inhibition at 1 ppm: dosage 1 ppm; for inhibition at 5 ppm: dosage 5 ppm
[2] = system: pathogenic bacteria causing bacterial wilt in tobacco; test: whole plant or invertebrate; assay type: cell-based, ralstonia; details: read-out: inhibitory rate
[3] = system: pathogenic bacteria causing black shank in potatoes; test: In vitro bactericidal activity, black shank in potatoes; assay type: cell-based; details: read-out: inhibitory rate; for inhibition at 1 ppm: dosage 1 ppm; for inhibition at 5 ppm: dosage 5 ppm
[4] = system: pathogenic bacteria causing stem rot in sweet potatoes; test: In vitro bactericidal activity, stem rot in sweet potatoes; assay type: cell-based, dikia; details: read-out: inhibitory rate; for inhibition at 1 ppm: dosage 1 ppm; for inhibition at 5 ppm: dosage 5 ppm
[5] = system: pathogenic bacteria causing bacterial blight in rice; test: whole plant or invertebrate; assay type: cell-based, xanthomonas; details: read-out: inhibitory rate
[6] = system: pathogenic bacteria causing fruit blotch in watermelons; test: In vitro bactericidal activity, fruit blotch in watermelons; assay type: cell-based, acidovorax; details: read-out: inhibitory rate; for inhibition at 1 ppm: dosage 1 ppm; for inhibition at 5 ppm: dosage 5 ppm
[7] = system: pathogenic bacteria causing black rot in Chinese cabbages; test: In vitro bactericidal activity, black rot in Chinese cabbages; assay type: cell-based, xanthomonas; details: Xanthomonas, read-out: inhibitory rate; for inhibition at 1 ppm: dosage 1 ppm; for inhibition at 5 ppm: dosage 5 ppm
[8] = system: pathogenic bacteria causing bacterial wilt in cassava; test: organism not typed; assay type: cell-based; details: read-out: inhibitory rate
[9] = system: pathogenic bacteria causing fire blight in pears; test: In vitro bactericidal activity, fire blight in pears; assay type: cell-based, erwinia; details: Erwinia, read-out: inhibitory rate; for inhibition at 1 ppm: dosage 1 ppm; for inhibition at 5 ppm: dosage 5 ppm
[10] = system: black shank in potatoes; test: Living crops in vivo protective activity, potatoes (root irrigation); details: Solanum tuberosum, read-out: efficacy against black shank in potatoes; for pest or weed control at 5 ppm: dosage 5 ppm; for pest or weed control at 10 ppm: dosage 10 ppm
Procedure: Root irrigation was carried out on the potatoes for tests according to the designed concentration of the agents. The dosage for each plant was 200 mL and was kept consistent (also for the control). The black shank bacteria were inoculated on the second day after the application. The results were investigated according to the disease condition.

[11] = system: indoor potted cucumber seedlings; test: Effect of improving growth and development of crops; assay type: in vivo; set-up: Rate of growth rate increase (%): concentration or dose not given beside the values; details: versus blank control; for Rate of chlorophyll content increase (%) / Rate of leaf area increase (%): 14 days after application; for Rate of growth rate increase (%): plant height 14 days after application; for Rate of leaf area increase (%): second leaf
Outline: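 Growth effects were scored as percent increases in height growth rate, second-leaf area and chlorophyll (SPAD meter), comparing values taken before and 14 days after application.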

[12] = system: cucumber seedlings; test: Safety for plant growth after application; assay type: in vivo; details: dosage 200 ppm
Outline: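 Compound applied to indoor cucumber seedlings in pots. Growth then scored: height increase rate, leaf chlorophyll, leaf area.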

[13] = system: bacterial wilt in tobacco; test: whole plant or invertebrate; details: Nicotiana tabacum, read-out: efficacy against bacterial wilt in tobacco
[14] = system: stem rot in sweet potatoes; test: whole plant or invertebrate; details: read-out: efficacy against stem rot in sweet potatoes
[15] = system: bacterial blight in rice; test: whole plant or invertebrate; details: Oryza sativa, read-out: efficacy against bacterial blight in rice
[16] = system: fruit blotch in watermelons; test: whole plant or invertebrate; details: read-out: efficacy against fruit blotch in watermelons
[17] = system: soft rot in Chinese cabbages; test: whole plant or invertebrate; details: 48 h, read-out: efficacy against soft rot in Chinese cabbages

| SMILES | inhibition at 1 ppm [1] | inhibition at 5 ppm [1] | inhibition at 1 ppm [2] | inhibition at 5 ppm [2] | inhibition at 1 ppm [3] | inhibition at 5 ppm [3] | inhibition at 1 ppm [4] | inhibition at 5 ppm [4] | inhibition at 1 ppm [5] | inhibition at 5 ppm [5] | inhibition at 1 ppm [6] | inhibition at 5 ppm [6] | inhibition at 1 ppm [7] | inhibition at 5 ppm [7] | inhibition at 1 ppm [8] | inhibition at 5 ppm [8] | inhibition at 1 ppm [9] | inhibition at 5 ppm [9] | pest or weed control at 5 ppm [10] | pest or weed control at 10 ppm [10] | further results |
| --- | --- | --- | --- | --- | --- | --- | --- | --- | --- | --- | --- | --- | --- | --- | --- | --- | --- | --- | --- | --- | --- |
| CN(C)c1cc2c(cc1F)c(=O)c(C(=O)OCCO)cn2C1CC1 [Compound 413] | ≥ 90% | ≥ 90% | ≥ 90% | ≥ 90% | ≥ 90% | ≥ 90% | ≥ 90% | ≥ 90% | ≥ 90% | ≥ 90% | ≥ 90% | ≥ 90% | ≥ 90% | ≥ 90% | ≥ 90% | ≥ 90% | ≥ 90% | ≥ 90% | ≥ 90% | ≥ 90% | Rate of chlorophyll content increase (%) [11]: 13%; Rate of growth rate increase (%) [11]: 15%; Rate of leaf area increase (%) [11]: 16%; safety for plant growth (discoloration, necrosis, wilt, malformation) [12]: safe for plant growth; pest or weed control at 5 ppm [13]: ≥ 90%; pest or weed control at 10 ppm [13]: ≥ 90%; pest or weed control at 5 ppm [14]: ≥ 90%; pest or weed control at 10 ppm [14]: ≥ 90%; pest or weed control at 5 ppm [15]: ≥ 90%; pest or weed control at 10 ppm [15]: ≥ 90%; pest or weed control at 5 ppm [16]: ≥ 90%; pest or weed control at 10 ppm [16]: ≥ 90%; pest or weed control at 5 ppm [17]: ≥ 90%; pest or weed control at 10 ppm [17]: ≥ 90% |
| O=C(OCCCO)c1cn(C2CC2)c2cc(Cl)c(F)cc2c1=O [Compound 164, 3-hydroxypropyl 7-chloro-1-cyclopropyl-6-fluoro-4-oxo-1,4-dihydroquinoline-3-carboxylate] | ≥ 90% | ≥ 90% | ≥ 90% | ≥ 90% | ≥ 90% | ≥ 90% | ≥ 90% | ≥ 90% | ≥ 90% | ≥ 90% | ≥ 90% | ≥ 90% | ≥ 90% | ≥ 90% | ≥ 90% | ≥ 90% | ≥ 90% | ≥ 90% | ≥ 90% | ≥ 90% | Rate of chlorophyll content increase (%) [11]: 19%; Rate of growth rate increase (%) [11]: 12%; Rate of leaf area increase (%) [11]: 16%; safety for plant growth (discoloration, necrosis, wilt, malformation) [12]: safe for plant growth; pest or weed control at 5 ppm [13]: ≥ 90%; pest or weed control at 10 ppm [13]: ≥ 90%; pest or weed control at 5 ppm [14]: ≥ 90%; pest or weed control at 10 ppm [14]: ≥ 90%; pest or weed control at 5 ppm [15]: ≥ 90%; pest or weed control at 10 ppm [15]: ≥ 90%; pest or weed control at 5 ppm [16]: ≥ 90%; pest or weed control at 10 ppm [16]: ≥ 90%; pest or weed control at 5 ppm [17]: ≥ 90%; pest or weed control at 10 ppm [17]: ≥ 90% |
| O=C(OCCO)c1cn(C2CC2)c2cc(Cl)c(F)cc2c1=O [Compound 151, 2-hydroxyethyl-7-chloro-1-cyclopropyl-6-fluoro-4-oxo-1,4-dihydroquinoline-3-carboxylate] | ≥ 90% | ≥ 90% | ≥ 90% | ≥ 90% | ≥ 90% | ≥ 90% | ≥ 90% | ≥ 90% | ≥ 90% | ≥ 90% | ≥ 90% | ≥ 90% | ≥ 90% | ≥ 90% | ≥ 90% | ≥ 90% | ≥ 90% | ≥ 90% | ≥ 90% | ≥ 90% | Rate of chlorophyll content increase (%) [11]: 15%; Rate of growth rate increase (%) [11]: 12%; Rate of leaf area increase (%) [11]: 16%; safety for plant growth (discoloration, necrosis, wilt, malformation) [12]: safe for plant growth; pest or weed control at 5 ppm [13]: ≥ 90%; pest or weed control at 10 ppm [13]: ≥ 90%; pest or weed control at 5 ppm [14]: ≥ 90%; pest or weed control at 10 ppm [14]: ≥ 90%; pest or weed control at 5 ppm [15]: ≥ 90%; pest or weed control at 10 ppm [15]: ≥ 90%; pest or weed control at 5 ppm [16]: ≥ 90%; pest or weed control at 10 ppm [16]: ≥ 90%; pest or weed control at 5 ppm [17]: ≥ 90%; pest or weed control at 10 ppm [17]: ≥ 90% |
| CCOCCOC(=O)c1cn(C2CC2)c2cc(OCC(F)(F)F)c(F)cc2c1=O [Compound 335] | ≥ 90% | ≥ 90% | ≥ 90% | ≥ 90% | ≥ 90% | ≥ 90% | ≥ 90% | ≥ 90% | ≥ 90% | ≥ 90% | ≥ 90% | ≥ 90% | ≥ 90% | ≥ 90% | ≥ 90% | ≥ 90% | ≥ 90% | ≥ 90% | ≥ 90% | ≥ 90% | Rate of chlorophyll content increase (%) [11]: 16%; Rate of growth rate increase (%) [11]: 12%; Rate of leaf area increase (%) [11]: 16%; safety for plant growth (discoloration, necrosis, wilt, malformation) [12]: safe for plant growth; pest or weed control at 5 ppm [13]: ≥ 90%; pest or weed control at 10 ppm [13]: ≥ 90%; pest or weed control at 5 ppm [14]: ≥ 90%; pest or weed control at 10 ppm [14]: ≥ 90%; pest or weed control at 5 ppm [15]: ≥ 90%; pest or weed control at 10 ppm [15]: ≥ 90%; pest or weed control at 5 ppm [16]: ≥ 90%; pest or weed control at 10 ppm [16]: ≥ 90%; pest or weed control at 5 ppm [17]: ≥ 90%; pest or weed control at 10 ppm [17]: ≥ 90% |
| COCCCOC(=O)c1cn(C2CC2)c2cc(F)ccc2c1=O [Compound 208] | ≥ 90% | ≥ 90% | ≥ 90% | ≥ 90% | ≥ 90% | ≥ 90% | ≥ 90% | ≥ 90% | ≥ 90% | ≥ 90% | ≥ 90% | ≥ 90% | ≥ 90% | ≥ 90% | ≥ 90% | ≥ 90% | ≥ 90% | ≥ 90% | ≥ 90% | ≥ 90% | Rate of chlorophyll content increase (%) [11]: 12%; Rate of growth rate increase (%) [11]: 5%; Rate of leaf area increase (%) [11]: 11%; safety for plant growth (discoloration, necrosis, wilt, malformation) [12]: safe for plant growth; pest or weed control at 5 ppm [13]: ≥ 90%; pest or weed control at 10 ppm [13]: ≥ 90%; pest or weed control at 5 ppm [14]: ≥ 90%; pest or weed control at 10 ppm [14]: ≥ 90%; pest or weed control at 5 ppm [15]: ≥ 90%; pest or weed control at 10 ppm [15]: ≥ 90%; pest or weed control at 5 ppm [16]: ≥ 90%; pest or weed control at 10 ppm [16]: ≥ 90%; pest or weed control at 5 ppm [17]: ≥ 90%; pest or weed control at 10 ppm [17]: ≥ 90% |
| COCCCCOC(=O)c1cn(C2CC2)c2cc(Cl)c(F)cc2c1=O [Compound 178] | ≥ 90% | ≥ 90% | ≥ 90% | ≥ 90% | ≥ 80% | ≥ 90% | ≥ 90% | ≥ 90% | ≥ 90% | ≥ 90% | ≥ 90% | ≥ 90% | ≥ 90% | ≥ 90% | ≥ 90% | ≥ 90% | ≥ 90% | ≥ 90% | ≥ 80% | ≥ 90% | Rate of chlorophyll content increase (%) [11]: 15%; Rate of growth rate increase (%) [11]: 9%; Rate of leaf area increase (%) [11]: 9%; safety for plant growth (discoloration, necrosis, wilt, malformation) [12]: safe for plant growth; pest or weed control at 5 ppm [13]: ≥ 90%; pest or weed control at 10 ppm [13]: ≥ 90%; pest or weed control at 5 ppm [14]: ≥ 90%; pest or weed control at 10 ppm [14]: ≥ 90%; pest or weed control at 5 ppm [15]: ≥ 90%; pest or weed control at 10 ppm [15]: ≥ 90%; pest or weed control at 5 ppm [16]: ≥ 90%; pest or weed control at 10 ppm [16]: ≥ 90%; pest or weed control at 5 ppm [17]: ≥ 90%; pest or weed control at 10 ppm [17]: ≥ 90% |
